Assay results taken from patent US20240174618A1, “SUBSTITUTED (2-HETEROARYLOXYPHENYL)SULFONATES, SALTS THEREOF AND THEIR USE AS HERBICIDAL AGENTS” (Bayer Aktiengesellschaft, priority 2021, published 2024).

Legend:
Format in all cases: in vivo
[1] = tested on: Abutilon theophrasti (ABUTH); assay: A. Herbicidal pre-emergence efficacy, ABUTH; details: scored visually after about 3 weeks vs untreated controls
In short: (§1)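 Pre-emergence soil-surface spray in sandy loam pots, WP/EC in water plus 0.5% additive, 600 L/ha. Visual % damage rating after about 3 weeks in greenhouse vs. untreated; 0% = control-like, 100% = dead plants. Rates up to 1280 g/ha.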

[2] = tested on: Alopecurus myosuroides (ALOMY); assay: A. Herbicidal pre-emergence efficacy, ALOMY; details: 1280 g/ha; scored visually after about 3 weeks vs untreated controls
Source text: Seeds of mono- and dicotyledonous weed plants were placed in plastic pots in sandy loam soil (doubly sown with one species each of mono- or dicotyledonous weed plants per pot) and covered with soil. The compounds of the invention, formulated in the form of wettable powders (WP) or as emulsion concentrates (EC), were then applied onto the surface of the covering soil as aqueous suspension or emulsion with addition of 0.5% additive at a water application rate of 600 liters per hectare (converted). After the treatment, the pots were placed in a greenhouse and kept under good growth conditions for the test plants. After about 3 weeks, the efficacy of the preparations was scored visually in comparison with untreated controls as percentages.
For example, • 100% efficacy=plants have died, • 0% efficacy=like untreated control plants.
Tables A1a to A12c below show the effects of selected compounds of the general formula (I) according to table 1 on various harmful plants at an application rate corresponding to 1280 g/ha or less, which were obtained by the experimental procedure mentioned above.

[3] = tested on: Digitaria sanguinalis (DIGSA); assay: A. Herbicidal pre-emergence efficacy, DIGSA; details: scored visually after about 3 weeks vs untreated controls
In short: as §1

[4] = tested on: Echinochloa crus-galli (ECHCG); assay: A. Herbicidal pre-emergence efficacy, ECHCG; details: scored visually after about 3 weeks vs untreated controls
In short: as §1

[5] = tested on: Kochia scoparia (KCHSC); assay: A. Herbicidal pre-emergence efficacy, KCHSC; details: pre-emergence
In short: as §1

[6] = tested on: Lolium rigidum (LOLRI); assay: A. Herbicidal pre-emergence efficacy, LOLRI
In short: as §1

[7] = tested on: Matricaria inodora (MATIN); assay: A. Herbicidal pre-emergence efficacy, MATIN; details: pre-emergence, dosage 1280 g/ha
In short: as §1

[8] = tested on: Poa annua (POAAN); assay: A. Herbicidal pre-emergence efficacy, POAAN
In short: as §1

[9] = tested on: Setaria viridis (SETVI); assay: A. Herbicidal pre-emergence efficacy, SETVI
In short: as §1

[10] = tested on: Stellaria media (STEME); assay: A. Herbicidal pre-emergence efficacy, STEME
In short: as §1

[11] = tested on: Veronica persica (VERPE); assay: A. Herbicidal pre-emergence efficacy, VERPE
In short: as §1

[12] = tested on: Amaranthus retroflexus (AMARE); assay: A. Herbicidal pre-emergence efficacy, AMARE
In short: as §1

[13] = tested on: Abutilon theophrasti (ABUTH); assay: B. Herbicidal post-emergence efficacy, ABUTH; details: rated visually after about 3 weeks
In short: (§2)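 Weeds grown in sandy loam in greenhouse pots, sprayed at one-leaf stage (2–3 weeks after sowing) with WP or EC formulations as aqueous suspension/emulsion plus 0.5% additive at 600 L/ha water, rates up to 1280 g/ha. Visual efficacy rated about 3 weeks later versus untreated controls (0% = like control, 100% = dead).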

[14] = tested on: Digitaria sanguinalis (DIGSA); assay: B. Herbicidal post-emergence efficacy, DIGSA; details: 1280 g/ha, rated visually after about 3 weeks
Procedure: (§3) Seeds of mono- and dicotyledonous weed plants were placed in plastic pots in sandy loam soil (doubly sown with in each case one species of mono- or dicotyledonous weed plants per pot), covered with soil and cultivated in a greenhouse under controlled growth conditions. 2 to 3 weeks after sowing, the test plants were treated at the one-leaf stage. The compounds of the invention, formulated in the form of wettable powders (WP) or as emulsion concentrates (EC), were applied onto the green parts of the plants as aqueous suspension or emulsion with addition of 0.5% additive at a water application rate of 600 liters per hectare (converted). After the test plants had been kept in the greenhouse under optimum growth conditions for about 3 weeks, the activity of the preparations was rated visually in comparison to untreated controls.
(§4) For example, • 100% efficacy=plants have died, • 0% efficacy=like untreated control plants
(§5) Tables B1a to B12c below show the effects of selected inventive compounds of the general formula (I) according to table 1 on various harmful plants at an application rate corresponding to 1280 g/ha or less, which were obtained by the experimental procedure mentioned above.

[15] = tested on: Echinochloa crus-galli (ECHCG); assay: B. Herbicidal post-emergence efficacy, ECHCG; details: rated visually after about 3 weeks
In short: as §2

[16] = tested on: Kochia scoparia (KCHSC); assay: B. Herbicidal post-emergence efficacy, KCHSC; details: for Post-emergence efficacy against KCHSC: 1280 g/ha
In short: as §2

[17] = tested on: Lolium rigidum (LOLRI); assay: B. Herbicidal post-emergence efficacy, LOLRI; details: 1280 g/ha
Procedure: as §3, §4, §5

[18] = tested on: Poa annua (POAAN); assay: B. Herbicidal post-emergence efficacy, POAAN
In short: as §2

[19] = tested on: Setaria viridis (SETVI); assay: B. Herbicidal post-emergence efficacy, SETVI
Procedure: as §3, §4, §5

[20] = tested on: Stellaria media (STEME); assay: B. Herbicidal post-emergence efficacy, STEME
In short: as §2

[21] = tested on: Veronica persica (VERPE); assay: B. Herbicidal post-emergence efficacy, VERPE
In short: as §2

[22] = tested on: Amaranthus retroflexus (AMARE); assay: B. Herbicidal post-emergence efficacy, AMARE
In short: as §2

SMILES: Cc1cccc(Oc2ncc(Cl)cn2)c1OS(=O)(=O)CCC(F)(F)F [Example I-29]
- Pre-emergence efficacy against ABUTH ([1]; 80 g/ha): 90%
- Pre-emergence efficacy against ABUTH ([1]; 320 g/ha): 100%
- Pre-emergence efficacy against ABUTH ([1]; 1280 g/ha): 100%
- Pre-emergence efficacy against ALOMY [2]: 90%
- Pre-emergence efficacy against DIGSA ([3]; 80 g/ha): 90%
- Pre-emergence efficacy against DIGSA ([3]; 320 g/ha): 100%
- Pre-emergence efficacy against DIGSA ([3]; 1280 g/ha): 100%
- Pre-emergence efficacy against ECHCG ([4]; 320 g/ha): 100%
- Pre-emergence efficacy against ECHCG ([4]; 1280 g/ha): 100%
- Pre-emergence efficacy against KCHSC ([5]; dosage 320 g/ha): 90%
- Pre-emergence efficacy against KCHSC ([5]; dosage 1280 g/ha): 100%
- Pre-emergence efficacy against LOLRI ([6]; dosage 320 g/ha): 100%
- Pre-emergence efficacy against LOLRI ([6]; dosage 1280 g/ha): 100%
- Pre-emergence efficacy against MATIN [7]: 90%
- Pre-emergence efficacy against POAAN ([8]; dosage 80 g/ha): 90%
- Pre-emergence efficacy against POAAN ([8]; dosage 320 g/ha): 100%
- Pre-emergence efficacy against POAAN ([8]; dosage 1280 g/ha): 100%
- Pre-emergence efficacy against SETVI ([9]; dosage 320 g/ha): 100%
- Pre-emergence efficacy against SETVI ([9]; dosage 1280 g/ha): 100%
- Pre-emergence efficacy against STEME ([10]; dosage 80 g/ha): 90%
- Pre-emergence efficacy against STEME ([10]; dosage 320 g/ha): 100%
- Pre-emergence efficacy against STEME ([10]; dosage 1280 g/ha): 100%
- Pre-emergence efficacy against VERPE in % ([11]; 320 g/ha): 100%
- Pre-emergence efficacy against VERPE in % ([11]; 1280 g/ha): 100%
- Pre-emergence efficacy against VERPE ([11]; dosage 80 g/ha): 100%
- Pre-emergence efficacy against AMARE in % ([12]; 80 g/ha): 90%
- Pre-emergence efficacy against AMARE in % ([12]; 320 g/ha): 100%
- Pre-emergence efficacy against AMARE in % ([12]; 1280 g/ha): 100%
- Post-emergence efficacy against ABUTH in % ([13]; 80 g/ha): 90%
- Post-emergence efficacy against ABUTH in % ([13]; 320 g/ha): 100%
- Post-emergence efficacy against ABUTH in % ([13]; 1280 g/ha): 100%
- Post-emergence efficacy against DIGSA in % [14]: 100%
- Post-emergence efficacy against ECHCG in % ([15]; 320 g/ha): 90%
- Post-emergence efficacy against ECHCG in % ([15]; 1280 g/ha): 100%
- Post-emergence efficacy against KCHSC in % ([16]; 320 g/ha, rated visually after about 3 weeks): 100%
- Post-emergence efficacy against KCHSC [16]: 100%
- Post-emergence efficacy against LOLRI [17]: 90%
- Post-emergence efficacy against POAAN ([18]; 320 g/ha): 90%
- Post-emergence efficacy against POAAN ([18]; 1280 g/ha): 100%
- Post-emergence efficacy against SETVI ([19]; 320 g/ha): 100%
- Post-emergence efficacy against SETVI ([19]; 1280 g/ha): 100%
- Post-emergence efficacy against STEME ([20]; 80 g/ha): 90%
- Post-emergence efficacy against STEME ([20]; 320 g/ha): 100%
- Post-emergence efficacy against STEME ([20]; 1280 g/ha): 100%
- Post-emergence efficacy against VERPE ([21]; 80 g/ha): 90%
- Post-emergence efficacy against VERPE ([21]; 320 g/ha): 90%
- Post-emergence efficacy against VERPE ([21]; 1280 g/ha): 100%
- Post-emergence efficacy against AMARE ([22]; 80 g/ha): 90%
- Post-emergence efficacy against AMARE ([22]; 320 g/ha): 100%
- Post-emergence efficacy against AMARE ([22]; 1280 g/ha): 100%

SMILES: Cc1cccc(Oc2ncc(Cl)cn2)c1OS(=O)(=O)CC1CC1(Cl)Cl (stereo not shown) [Example I-76]
- Pre-emergence efficacy against DIGSA ([3]; 320 g/ha): 90%
- Pre-emergence efficacy against DIGSA ([3]; 1280 g/ha): 90%
- Pre-emergence efficacy against POAAN ([8]; dosage 320 g/ha): 90%
- Pre-emergence efficacy against POAAN ([8]; dosage 1280 g/ha): 90%
- Pre-emergence efficacy against SETVI ([9]; dosage 320 g/ha): 100%
- Pre-emergence efficacy against SETVI ([9]; dosage 1280 g/ha): 100%
- Pre-emergence efficacy against STEME ([10]; dosage 80 g/ha): 90%
- Pre-emergence efficacy against STEME ([10]; dosage 320 g/ha): 90%
- Pre-emergence efficacy against STEME ([10]; dosage 1280 g/ha): 100%
- Pre-emergence efficacy against AMARE in % ([12]; 320 g/ha): 90%
- Pre-emergence efficacy against AMARE in % ([12]; 1280 g/ha): 100%
- Post-emergence efficacy against ABUTH in % ([13]; 80 g/ha): 90%
- Post-emergence efficacy against ABUTH in % ([13]; 320 g/ha): 90%
- Post-emergence efficacy against ABUTH in % ([13]; 1280 g/ha): 100%
- Post-emergence efficacy against ECHCG in % ([15]; 320 g/ha): 90%
- Post-emergence efficacy against ECHCG in % ([15]; 1280 g/ha): 100%
- Post-emergence efficacy against KCHSC [16]: 90%
- Post-emergence efficacy against LOLRI [17]: 90%
- Post-emergence efficacy against POAAN ([18]; 320 g/ha): 90%
- Post-emergence efficacy against POAAN ([18]; 1280 g/ha): 100%
- Post-emergence efficacy against STEME ([20]; 80 g/ha): 90%
- Post-emergence efficacy against STEME ([20]; 320 g/ha): 100%
- Post-emergence efficacy against STEME ([20]; 1280 g/ha): 100%
- Post-emergence efficacy against VERPE ([21]; 80 g/ha): 90%
- Post-emergence efficacy against VERPE ([21]; 320 g/ha): 100%
- Post-emergence efficacy against VERPE ([21]; 1280 g/ha): 100%
- Post-emergence efficacy against AMARE ([22]; 80 g/ha): 90%
- Post-emergence efficacy against AMARE ([22]; 320 g/ha): 100%
- Post-emergence efficacy against AMARE ([22]; 1280 g/ha): 100%
